Experimental data: patent US10975355B2, “Controlled induction of human pancreatic progenitors produces functional beta-like cells” (THE REGENTS OF THE UNIVERSITY OF CALIFORNIA, priority 2015, dated 2021)

Legend:
Format in all cases: cell-based, human
[1] = system: MEL1 INS^GFP/W reporter cells (hESC); assay: Flow cytometric analysis of pancreatic progenitor/endocrine markers in differentiating hESC spheres; conditions: for generation of PDX1+ cells over base media alone: group 1, factor alone days 6-8 (conditions 2 and 3), day 9.5
Method: Undifferentiated MEL1 INS^GFP/W reporter cells (Micallef et al, 2012) were maintained on mouse embryo fibroblast feeder layers (Millipore) in hESC media as described (Guo et al, 2013b). Suspension-based differentiations were carried out as follows. Briefly, confluent cultures were dissociated into single cell suspension by incubation with TrypLE (Gibco). Cells were counted and each well of 6-well low-adherence plates were seeded with 5.5×10^6 cells in 5.5 ml hES media supplemented with 10 ng/ml Activin A (R&D systems) and 10 ng/ml HeregulinB1 (Peprotech). Plates were placed on an orbital shaker at 100 rpm to induce sphere formation, as described (Schulz et al, 2012). To induce definitive endoderm differentiation, aggregates were collected 24 hours later in a 50 ml falcon tube, allowed to settle by gravity, washed once with PBS and re-suspended in d1 media (RPMI (Gibco) containing 0.2% FBS, 1:5000 ITS (Gibco), 100 ng/ml Activin A, and 50 ng/ml WNT3a (R&D systems)). Clusters from 3 wells were combined into 2 wells at this point and distributed into fresh low-attachment plates in 5.5 ml d1 media. Media thereafter was changed daily, by removing either 4.5 ml media (at the end of d1) or 5.5 ml media the following days and adding back 5.5 ml fresh media until day 9. After day 9, only 5 ml of media was removed and added daily.
Briefly, spheres were collected and allowed to settle by gravity. Clusters were washed once in PBS and dissociated by gentle pipetting after 12-15 minutes incubation in Accumax (innovative cell technologies). For sorting, cell suspension were filtered and re-suspended in FACS buffer consisting of phosphate-buffered saline (PBS) (UCSF cell culture facility) containing 2 mM EDTA (Ambion) and 1% BSA (Sigma). Dead cells were excluded by DAPI (Sigma) staining. Cell sorting was performed on a FACS Aria II (BD Bioscience). For flow-based analysis, dissociated cells were fixed with 4% paraformaldehyde (Electron Microscopy Science) for 15 minutes at room temperature, followed by two washes in PBS. Samples were either stored at 4 C or immediately stained with directly conjugated antibodies. Data analysis was performed with FlowJo software. Mouse Glucagon and mouse human C-peptide antibodies were conjugated in-house by the UCSF Antibody Core and/or with Antibody Labeling Kits (Molecular Probes) according to manufacturer's instructions. […]
To characterize the type of progenitors present in differentiating cultures at the point of endocrine induction, we performed a detailed time course analysis for the expression of pancreatic markers PDX1, NKX6.1, NEUROG3, GCG and INS (FIG. 7). […] Indeed, the expression of NEUROG3 can be detected as early as day 6, when NKX6.1 protein is absent from all cells (FIGS. 7A and B). […]

[2] = system: NEUROG3 and NKX2.2 mRNA transcripts; assay: qPCR analysis of NEUROG3 and NKX2.2 transcripts at day 8 of differentiation; conditions: day 8, compared to RCN condition / during RCN or R treatment
Method: Total RNA was isolated with TRIZOL (Sigma) or micro/mini RNAeasy kit (Qiagen) and reverse transcribed using the iScript cDNA Kit (Bio-Rad) according to manufacturer's instructions. qPCR analysis was performed on an ABI 7900 HT Fast Real-Time PCR System (Applied Biosystems) and CFX Connect Real Time System (Biorad) using standard protocols. Primers were Taqman Probes (Applied Biosystems) and/or as published previously (Liu et al, 2014). P-values were calculated using a two-tailed student's t-test.
To characterize the type of progenitors present in differentiating cultures at the point of endocrine induction, we performed a detailed time course analysis for the expression of pancreatic markers PDX1, NKX6.1, NEUROG3, GCG and INS (FIG. 7). […] Indeed, the expression of NEUROG3 can be detected as early as day 6, when NKX6.1 protein is absent from all cells (FIGS. 7A and B). […] We thus expected that robust generation of PDX1+/NKX6.1+ progenitor cells prior to induction of NEUROG3 would allow efficient generation of beta-like cells in vitro. […] Spheres cultured under each condition were analyzed at day 9.5 by flow cytometry to quantify the expression of PDX1 and NKX6.1, and by conventional immunofluorescence analysis for NKX6.1 and NEUROG3 expression. […]

[3] = system: NEUROG3 expression in hESC-derived clusters; assay: Immunofluorescence (whole mount / sections) for NEUROG3 protein in differentiated clusters; conditions: day 9.5, whole mount staining
Method: Spheres were fixed for 15-30 minutes at room temperature with 4% paraformaldehyde, followed by multiple washes in PBS. Whole mount staining was performed in suspension, by first blocking overnight at 4° C. in blocking buffer consisting of CAS-block (Invitrogen) with 0.2% TritonX (Fisher). Primary antibodies were incubated overnight at 4° C. in blocking buffer, followed by washes in PBS containing 0.1% Tween-20 (PBS-T, Sigma) and incubation in appropriate secondary antibodies diluted in PBS-T overnight at 4° C. The next day, clusters were washed in PBS-T followed by PBS and mounted with Vectashield (Vector) on glass slides. For sectioning of clusters, spheres were embedded in 2% Agar (Sigma), followed by dehydration, paraffin embedding, and sectioning. […]
To characterize the type of progenitors present in differentiating cultures at the point of endocrine induction, we performed a detailed time course analysis for the expression of pancreatic markers PDX1, NKX6.1, NEUROG3, GCG and INS (FIG. 7). […] Indeed, the expression of NEUROG3 can be detected as early as day 6, when NKX6.1 protein is absent from all cells (FIGS. 7A and B). […] Spheres cultured under each condition were analyzed at day 9.5 by flow cytometry to quantify the expression of PDX1 and NKX6.1, and by conventional immunofluorescence analysis for NKX6.1 and NEUROG3 expression. […]

CC1=C2C[C@H]3[C@@H](CC=C4C[C@@H](O)CC[C@@]43C)[C@@H]2CC[C@]12O[C@@H]1C[C@H](C)CN[C@H]1[C@H]2C [C, Cyclopamine]
generation of PDX1+ cells over base media alone [1]: did not result in enhanced generation of PDX1+ cells

O=C1O[C@H]([C@@H](O)CO)C(O)=C1O [Vitamin C]
NEUROG3 and NKX2.2 mRNA transcripts [2]: did not significantly lower

CC1=C(/C=C/C(C)=C/C=C/C(C)=C/C(=O)O)C(C)(C)CCC1 [retinoic acid]
PDX1 positive progenitors ([1]; group 1, exposure days 6-8, alone or combined (conditions 4, 5, 6), analysed day 9.5): > 88% | PDX1+ pancreatic progenitors generated ([1]; retinoic acid alone): more than 98%

B1: N: the BMP inhibitor Noggin (N) (protein, UniProt Q13253 28-232, looked up)
Noggin: QHYLHIRPAPSDNLPLVDLIEHPDPIFDPKEKDLNETLLRSLLGGHYDPGFMATSPPEDRPGGGGGAAGGAEDLAELDQLLRQRPSGAMPSEIKGLEFSEGLAQGKKQRLSKKLRRKLQMWLWSQTFCPVLYAWNDLGSRFWPRYVKVGSCFSKRSCSVPEGMVCKPSKSVHLTVLRWRCQRRGGQRCGWIPIQYPIISECKCSC
formation of NEUROG3 positive endocrine precursors [3]: induced | generation of PDX1+ cells over base media alone [1]: did not result in enhanced generation of PDX1+ cells
